From patent US6194411A, “3(2H)-pyridazinone derivatives and pharmaceutical compositions containing these compounds” (priority 1995, dated 2001)
Like-named read-outs stand apart in the source and are kept apart here.

Experiments:
[1] = molecular target: T1, α1-adrenoceptor (human hyperplasic prostate tissue) (Homo sapiens, UniProt P35348); assay: isolated organ: postsynaptic α1-adrenoceptor antagonism on human hyperplasic prostate tissue; settings: agonist phenylephrine; 37° C; 30 minutes incubation with antagonist; read-out: pA2 human hyperplasic prostate tissue (converted)
T1 construct: Strips prepared from human hyperplasic prostate tissue; from tissue; host or cells: human hyperplastic prostate strips
T1 sequence (P35348 1-466): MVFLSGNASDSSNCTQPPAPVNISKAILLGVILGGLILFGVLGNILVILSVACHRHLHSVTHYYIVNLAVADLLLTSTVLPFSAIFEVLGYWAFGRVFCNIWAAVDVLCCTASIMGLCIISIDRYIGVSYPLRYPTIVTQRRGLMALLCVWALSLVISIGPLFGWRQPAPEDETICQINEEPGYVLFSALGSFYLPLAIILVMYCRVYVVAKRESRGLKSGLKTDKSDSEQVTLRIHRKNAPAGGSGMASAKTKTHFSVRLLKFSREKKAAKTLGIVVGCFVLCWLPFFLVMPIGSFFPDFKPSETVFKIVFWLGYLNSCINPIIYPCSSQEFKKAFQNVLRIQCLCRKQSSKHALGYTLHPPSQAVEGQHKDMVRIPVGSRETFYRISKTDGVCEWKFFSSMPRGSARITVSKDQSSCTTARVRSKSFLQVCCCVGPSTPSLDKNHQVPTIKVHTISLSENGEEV
Procedure: (§1) In addition, investigations were performed on blood vessel and human hyperplasic prostate tissue preparations. In these experiments, a mesenteric artery was used as a model of resistance vessels which affect the blood pressure. We measured the extent of inhibition of the compounds of the invention and that of the reference drugs, respectively, on the contraction-inducing action of the α1 -agonist (phenylephrine).The α1 -adrenoceptor antagonism was then characterized by pA2 values.
(§2) α1 -Adrenoceptor antagonistic effect in isolated organ experiments
(§3) B) Investigation of postsynaptic α1 -adrenoceptors on human prostate preparation
(§4) This test was performed according to the method of Scheu-Eei Yu et al. [Eur. J. Pharmacol. 252, 29 (1994)].
(§5) Strips prepared from human hyperplasic prostate tissue were suspended in a Krebs solution bubbled with carbogen at 37° C. A pre-tension of 1 g and an equilibration period of 1 hour were used. A dose-effect curve was established for phenylephrine. Then, after washing out and incubation with the antagonist for 30 minutes, the dose/effect curve was again determined. For characterizing the antagonistic effects, pA2 values were calculated.

[2] = tested on: α1-adrenoceptor (human hyperplasic prostate tissue); assay: as above; settings: for Selectivity (prostate/artery): antilogarithmic ratio of pA2 value, human prostate vs rat mesenteric artery; for α1-adrenoceptor antagonistic effect (in words): Table 2 data, prostate tissue and resistance artery
Procedure: as §1, §2, §3, §4, §5

[3] = tested on: phenylephrine-induced intraurethral hypertension; assay: phenylephrine-induced intraurethral hypertension in anaesthetized cats; type: in vivo, cat; settings: for ED50: Felis catus, phenylephrine 15 μg/kg/min intravenous, read-out: ED50 urethra (dose decreasing by 50% the hypertension induced by phenylephrine); for ED50 / D/U: ED50 (diastolic pressure)/ED50 (urethra): iv., anaesthetized cat; for D/U: ED50 (diastolic pressure)/ED50 (urethra): urogenital selectivity; for urogenital selectivity (in words): in vivo
Text: (§6) In an in vivo animal model, in anaesthetized cat, intraurethral hypertension can be induced by α1 -adrenoceptor agonists [e.g. phenylephrine, which is chemically (-)-1-(3-hydroxyphenyl)-2-(methylamino)ethanol]. This hypertension-inducing effect can be antagonized by α1 -adrenoceptor antagonists. The antihypertensive effect is expressed by reduction of the diastolic pressure. Results of this experiment are summarized in Table 1 (the experiment is described in detail in the Pharmacological part).
^a Dose decreasing by 50% the hypertension induced by a 15 μg/kg/min
(§7) Effect on the intraurethral and diastolic blood pressure on anaesthetized cats
(§8) This investigation was performed according to the method of Lefevre et al. [Br. J. Pharmacol. 109, 1282 (1993)]. The essence of the method can be summarized as follows.
(§9) Cannules were introduced into the femoral artery and vein of pentobarbitone-anaesthetized, artificially ventilated cats of both sexes weighing 2.5 to 3.5 kg for administration of the compounds and measurement of blood pressure. The bladder was exposed by lower median laporotomy and a catheter was introduced into the urethra through the trigonum. The arterial and intraurethral pressures were registered on a Hellige polygraph by using a pressure transducer.
(§10) For excluding autonomic effects mediated not through α-adrenoceptors,mecamylamine, atropine and propranolol were administered intravenously in doses of 0.5, 0.75 and 0.5 mg/kg, respectively.
(§11) An increase in intraurethral and blood pressure was induced by phenylephrine infusion of 15 μg/kg/min; the change over the baseline pressure was considered to be 100%. The test substances were administered intravenously in 1-1000 μg/kg cumulative bolus doses. An interval of at least 5 minutes was allowed after each dose. The dose of α-antagonist inhibiting by 50% the phenylephrine-induced increase in urethral pressure ([…] uretha) as well as the dose […] by 50% the phenylephrine-induced diastolic total pressure elevation (ED50 diastolic value) were determined.

[4] = tested on: diastolic pressure; assay: phenylephrine-induced diastolic blood pressure increase in anaesthetized cats; type: in vivo, cat; settings: for ED50: Felis catus, iv., anaesthetized cat, phenylephrine 15 μg/kg/min, read-out: ED50 diastolic pressure (dose decreasing by 50% the diastolic total pressure increased by phenylephrine); for influence on other cardiovascular parameters (in words): doses that diminish the intraurethral pressure
Text: as §6
^b Dose decreasing by 50% the diastolic total pressure increased by
as §7, §8, §9, §10, §11

[5] = tested on: α1-adrenoceptor (mesenteric artery); assay: isolated organ: postsynaptic α1-adrenoceptor antagonism on mesenteric artery; parameters: species or system rat; settings: agonist phenylephrine; 37° C; 30-minute incubation with antagonist
Procedure: as §1, §2
A) Investigation of postsynaptic α1 -adrenoceptors on the rate mesenteric artery
This test was performed according to the method of Angus et al. [J. Physiol.

[6] = toxicity (statement, no test described)
[7] = molecular target: T2, postsynaptic α2-adrenoceptor (vena saphena) (Canis lupus familiaris, UniProt A0A8I3Q7S8); assay: postsynaptic α2-adrenoceptor antagonism in dog vena saphena preparation
T2 construct: Postsynaptic α2 -adrenoceptor antagonism in dog vena saphena preparation; from tissue; host or cells: dog saphenous vein
T2 sequence (A0A8I3Q7S8 1-427): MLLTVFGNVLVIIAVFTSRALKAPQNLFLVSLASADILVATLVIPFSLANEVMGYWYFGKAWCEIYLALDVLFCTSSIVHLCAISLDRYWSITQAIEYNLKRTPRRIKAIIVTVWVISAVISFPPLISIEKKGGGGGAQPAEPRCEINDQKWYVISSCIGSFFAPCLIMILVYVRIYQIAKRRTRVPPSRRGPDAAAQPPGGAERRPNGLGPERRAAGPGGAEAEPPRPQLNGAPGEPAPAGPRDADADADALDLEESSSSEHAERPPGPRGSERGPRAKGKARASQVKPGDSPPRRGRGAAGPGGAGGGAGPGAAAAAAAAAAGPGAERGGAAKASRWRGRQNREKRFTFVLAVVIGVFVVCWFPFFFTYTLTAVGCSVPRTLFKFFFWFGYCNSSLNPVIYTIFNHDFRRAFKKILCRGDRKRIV
Procedure: (§12) The antagonism was characterized by the pA2 values.
(§13) B) Postsynaptic α2 -adrenoceptor antagonism in dog vena saphena preparation
(§14) This investigation was carried out by the method of Fowler et al. [J. Pharmcol.
(§15) β-Adrenoceptors were inactivated with propranolol. […] After 30 minutes, the organs were incubated with the […] for 30 minutes. Also here, the antagonism was characterized by the pA2 values.

[8] = tested on: postsynaptic α2-adrenoceptor (vena saphena); assay: as above; settings: for selectivity toward the postsynaptic α2-receptors (in words) / α2-adrenoceptor antagonistic activity (in words): Table 3 data; for Selectivity postsynaptic/presynaptic: antilogarithmic ratio of pA2 values, dog vena saphena vs rat vas deferens
Procedure: as §12, §13, §14, §15

[9] = molecular target: T3, presynaptic α2-adrenoceptor (vas deferens) (Rattus norvegicus, UniProt P22909); assay: presynaptic α2-adrenoceptor antagonism on rat vas deferens preparation; settings: agonist xylazine, 35° C, electrically stimulated, read-out: pA2 presynaptic (converted)
T3 construct: Vas deferents were isolated from SPRD rats; from tissue; host or cells: vas deferens of SPRD rats, electrically stimulated
T3 sequence (P22909 1-465): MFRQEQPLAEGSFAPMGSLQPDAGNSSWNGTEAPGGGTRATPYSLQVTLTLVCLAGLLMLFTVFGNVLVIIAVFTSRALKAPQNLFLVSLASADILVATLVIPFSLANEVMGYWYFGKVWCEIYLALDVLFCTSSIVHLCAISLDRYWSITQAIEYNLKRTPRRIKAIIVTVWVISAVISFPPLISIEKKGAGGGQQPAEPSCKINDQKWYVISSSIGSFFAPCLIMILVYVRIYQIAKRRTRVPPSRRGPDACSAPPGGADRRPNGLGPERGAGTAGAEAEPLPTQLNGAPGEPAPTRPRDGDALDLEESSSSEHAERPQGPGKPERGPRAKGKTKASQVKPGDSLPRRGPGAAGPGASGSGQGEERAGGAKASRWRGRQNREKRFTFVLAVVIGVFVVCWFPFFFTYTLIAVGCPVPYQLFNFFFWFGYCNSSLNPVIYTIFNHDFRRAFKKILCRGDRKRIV
Procedure: as §12
Pre- and postsynaptic α1 -adrenoceptor antagonistic effects
A) Presynaptic α2 -adrenoceptor antagonism on the rat vas deference preparation
Briefly, the experiment was performed as follows.
Vas deferents were isolated from SPRD rats according to Vizi et al. [N. S. Arch. Pharmcol.
A dose/effect curve was determined for xylazine. Then, after washing out, the organ was incubated with the antagonist. The dose/effect curve was taken again with xylazine in the presence of the antagonist. The antagonism was characterized by the pA2 value determined according to the method of Arunlakshana and Schield [Br. J. Pharmcol.

[10] = background; cited from earlier work
[11] = dog vena saphena, agonist UK 14304, 30 minutes incubation, read-out: pA2 postsynaptic (converted)

For O=c1cccnn1CCCNCC1COc2ccccc2O1 (racemic) [(3), 2-[3-([1,4]benzodioxan-2-ylmethylamino)-1-propyl]-3(2H)-pyridazinone, reference compound], the Kb [1] was 30.9 nM, the “Selectivity (prostate/artery)” value [2] was 2.24 and the ED50 [3] was 0.0284 mg/kg. The “D/U: ED50 (diastolic pressure)/ED50 (urethra)” value (“D/U: ED50” below) [3] was 4.6, the ED50 [4] was 0.13 mg/kg and the “pA2 rat mesenteric artery” value [5] was 7.16.

In the case of COc1cc2nc(N(C)CCCNC(=O)C3CCCO3)nc(N)c2cc1OC (stereo not shown) [Alfuzosin], the “pA2 rat mesenteric artery” value [5] is reported as 8.60.

For O=c1cccnn1CCCNC[C@@H]1COc2ccccc2O1 [(1), R-2-[3-([1,4]-benzodioxan-2-ylmethylamino)-1-propyl]-3(2H)-pyridazinone], the Kb [1] was 63.1 nM, the “α1-adrenoceptor antagonistic effect (in words)” value [2] was “strong α1 -adrenoceptor antagonistic effect” and the “Selectivity (prostate/artery)” value [2] was 4.37. For the same compound, the ED50 [3] was 0.0139 mg/kg, the “urogenital selectivity (in words)” value [3] was “significant urogenital selectivity” and the “D/U: ED50” value [3] was over 63.9. For the same compound, the ED50 [4] was over 0.888 mg/kg, the “influence on other cardiovascular parameters (in words)” value [4] was “very weak influence only on other cardiovascular parameters” and the “pA2 rat mesenteric artery” value [5] was 6.56. For the same compound, the “toxicity (in words)” value [6] was “low toxicity”, the Kb [7, 11] was 13.5 nM and the “selectivity toward the postsynaptic α2-receptors (in words)” value [8] was “excellent selectivity toward the postsynaptic α2 -receptors”. For the same compound, the “α2-adrenoceptor antagonistic activity (in words)” value [8] was “strong α2 -adrenoceptor antagonistic activity”, the Selectivity postsynaptic/presynaptic [8] was 115.0 and the Kb [9] was 1550 nM.

For O=c1cccnn1CCCNC[C@H]1COc2ccccc2O1 [(2)], the Kb [1] was 5.89 nM, the “α1-adrenoceptor antagonistic effect (in words)” value [2] was “strong α1 -adrenoceptor antagonistic effect” and the “Selectivity (prostate/artery)” value [2] was 3.55. The ED50 [3] was 0.0034 mg/kg, the “urogenital selectivity (in words)” value [3] was “significant urogenital selectivity” and the “D/U: ED50” value [3] was 26.5. The ED50 [4] was 0.09 mg/kg, the “influence on other cardiovascular parameters (in words)” value [4] was “very weak influence only on other cardiovascular parameters” and the “pA2 rat mesenteric artery” value [5] was 7.68. For the same compound, the “toxicity (in words)” value [6] was “low toxicity”, the Kb [7, 11] was 7.24 nM and the “selectivity toward the postsynaptic α2-receptors (in words)” value [8] was “excellent selectivity toward the postsynaptic α2 -receptors”. The “α2-adrenoceptor antagonistic activity (in words)” value [8] was “strong α2 -adrenoceptor antagonistic activity”, the Selectivity postsynaptic/presynaptic [8] was 21.4 and the Kb [9] was 155 nM.

In the case of COc1cc2nc(N3CCN(C(=O)C4CCCO4)CC3)nc(N)c2cc1OC (stereo not shown) [Terazosin], the “pA2 rat mesenteric artery” value [5] is reported as 8.45.

For COc1cc2nc(N3CCN(C(=O)c4ccco4)CC3)nc(N)c2cc1OC [Prazosin, reference compound], the ED50 [3] was 0.0187 mg/kg, the “D/U: ED50” value [3] was 1.3 and the ED50 [4] was 0.025 mg/kg. The “urogenital selectivity of available drugs (in words)” value [10] was “low or moderate”.

Work on COC(=O)[C@@H]1[C@H]2C[C@H]3c4[nH]c5ccccc5c4CCN3C[C@@H]2CC[C@@H]1O [Yohimbine, reference compound] yielded a Kb [7] of 8.91 nM.
